Assay results from US20160229835A1, “NOVEL PYRIDYLOXYACETYL TETRAHYDROISOQUINOLINE COMPOUNDS USEFUL AS NAMPT INHIBITORS” (ELI LILLY AND COMPANY, priority 2013, published 2016).

How the values were obtained:
[1] = test system: NCI-H1155 Tumor Xenografts; assay: LC-MS Analysis of NAD+ in NCI-H1155 Tumor Xenografts; type: in vivo, mice; conditions: oral gavage
Method: (§1) The purpose of this assay is to measure effects of NAMPT inhibitors on NAD^+ formation in cancer cells. LC-MS analysis of NAD^+ metabolites: nicotinamide mononucleotide (NMN), NAD^+, reduced nicotinamide adenine dinucleotide (NADH), and nicotinamide adenine dinucleotide phosphate (NADP) is performed on an HPLC system coupled to a Thermo Quantum Ultra triple quadrupole mass spectrometer operated in positive heated electrospray mode with selected reaction monitoring detection. For cell extracts, 50 μL of extract and 10 μL of 10 μM internal standard (IS) solution is transferred to a 96-well plate, dried under nitrogen and reconstituted in 50 μL of water. For tissue extracts, 20 μL of extract and 10 μL of IS solution are dried and reconstituted in 50 μL water. The IS solution contains 10 μM nicotinamide-d4 (C/D/N Isotopes), nicotinic acid-d4 (C/D/N Isotopes), nicotinamide mononucleotide-d4 (prepared by custom synthesis) and nicotinamide 1,N^6-ethenoadenine dinucleotide in methanol. The metabolites are separated on a Waters XBRIDGE™ Amide (2.1×50 mm, 3 μm) with an injection volume of 10 μL and a flow rate of 1 mL/minute using 10 mM ammonium acetate in 95% acetonitrile for mobile phase A and 10 mM ammonium acetate in 50% acetonitrile for mobile phase B. The gradient is as follows: 0 minutes, 0% B; 2.5 minutes, 70% B; 2.51 minutes, 100% B; 2.8 minutes, 100% B; 2.81 minutes, 0% B, 3.6 minutes, 0% B.
(§2) The purpose of this assay is to measure the effects of NAMPT inhibitors on NAD^+ levels in vivo as described above. Tumors are grown and treated as described below for efficacy in xenograft tumor models below (7 animals/group). Each compound is also formulated as described for efficacy in xenograft tumor models below. Vehicle is 20% of CAPTISOL® and 25 mM of phosphate buffer, pH 2 without compound. After the completion of the treatment, tumor tissues (˜50 mg each) are homogenized in an ice cold extraction buffer (1 mL of 70% methanol/water; HPLC grade for 2 minutes in a tissue lyser II (QIAGEN™) at frequency 30 Hz. The resulting preparations are centrifuged at 14000×g for 6 minutes. The supernatant fractions (500 μL each) are collected and extracted with chloroform (0.5 mL). The aqueous fractions (0.3 mL each) are collected into a 96-well plate ready for LC-MS analysis. The LC-MS analysis of NAD metabolites is performed as described above.
(§3) The purpose of this assay is to measure reduction in tumor volume in response to test compound administration. A2780 and NCI-H1155 (NSCLC) cells are grown as described above for IVTI studies. Cells are harvested and injected subcutaneously onto the rear flank of nude mice. When tumors are established (7-21 days after implant), animals are randomized and grouped into control and test groups (7 animals/group). The test compound is formulated in 20% of CAPTISOL® and 25 mM of phosphate buffer, pH 2. Test compound and vehicle (20% of CAPTISOL® and 25 mM of phosphate buffer, pH 2 without compound) are administered by oral gavage. Tumor response is determined by tumor volume measurement (caliper) performed twice a week during the course of treatment and reported as percent of tumor volume of each treatment group divided by tumor volume of the vehicle control group. […]

[2] = test system: HCC1937 (breast cancer) cells; assay: Cell Viability Assay, HCC1937; type: cell-based; conditions: Homo sapiens, 72 hours
Method: The purpose of this assay is to measure the ability of a compound to reduce viability of different cancer cells dependent on the NAMPT-mediated NAD^+ formation in vitro. HCC1937 (breast cancer) cells are cultured in RPMI-1640 supplemented with 10% FBS. Calu-6 (lung cancer) cells and MCF-7 (breast cancer) cells are cultured in Minimum Essential Medium (MEM) (Gibco11095) supplemented with 1 mM sodium pyruvate (Gibco 11360), 1% Non-Essential Amino Acids Solution (100×; Gibco 11140) and 10% FBS. NCI-H1155 (lung cancer) cells are cultured in Dulbecco's Modified Eagle Medium (DMEM) (Gibco 11965) with 10% FBS. […] Cell viability is analyzed by using an assay kit (CYTOTOX-GLO™ Cytotoxicity Assay kit, Promega) according to the manufacturer's instructions as follows. […] Luminescence is measured using a Wallac Victor3 V 1420 Multilabel Counter (Perkin Elmer), referred to as dead cell luminescence. […] After the plate is incubated at room temperature for 15 minutes, luminescence is measured using the plate reader, referred to as total luminescence. Viable cell luminescence (CPS) is calculated by subtracting the dead cell luminescence from the total luminescence Inhibition of cell viability is calculated based on the equation as follows:
Inhibition (%)=(CPSnegative−CPSsample)/(CPSnegative−CPSpositive)*100 where CPS is the luminescence of viable cells.

[3] = test system: A2780 Tumor Xenografts; assay: LC-MS Analysis of NAD+ in A2780 Tumor Xenografts; type: in vivo, mice; conditions: oral gavage
Method: as §1, §2, §3

IC50 [2] [nM] | Structure (SMILES) | NAD levels (pmol/mg tissue) ([1]; 2.5 mg/kg (BID)) | NAD levels (pmol/mg tissue) ([1]; 5 mg/kg (BID)) | NAD levels (pmol/mg tissue) ([1]; 10 mg/kg (BID)) | NAD levels (pmol/mg tissue) ([1]; 20 mg/kg (BID)) | NAD levels (pmol/mg tissue) ([3]; 5 mg/kg (BID)) | NAD levels (pmol/mg tissue) ([3]; 10 mg/kg (BID)) | NAD levels (pmol/mg tissue) ([3]; 20 mg/kg (BID)) | NAD levels (pmol/mg tissue) ([1]; 8 mg/kg (BID)) | NAD levels (pmol/mg tissue) ([1]; 16 mg/kg (BID)) | NAD levels (pmol/mg tissue) ([1]; 32 mg/kg (BID)) | NAD levels (pmol/mg tissue) ([3]; 8 mg/kg (BID)) | NAD levels (pmol/mg tissue) ([3]; 16 mg/kg (BID)) | NAD levels (pmol/mg tissue) ([3]; 32 mg/kg (BID))
333 ± 32 | CC(C)(O)CS(=O)(=O)Nc1ccc2c(c1)CCN(C(=O)COc1cccnc1)C2 [Example 1, 2-Hydroxy-2-methyl-N-[2-[2-(3-pyridyloxy)acetyl]-3,4-dihydro-1H-isoquinolin-6-yl]propane-1-sulfonamide] | 11.38 | 7.48 | 3.63 | 1.82 | 5.04 | 2.55 | 3.29 |  |  |  |  |  | 
1040 ± 664 | COCCS(=O)(=O)Nc1ccc2c(c1)CCN(C(=O)COc1cccnc1)C2 [Example 2, 2-Methoxy-N-[2-[2-(3-pyridyloxy)acetyl]-3,4-dihydro-1H-isoquinolin-6-yl]ethanesulfonamide] |  |  |  |  |  |  |  | 5.19 | 1.98 | 0.84 | 3.97 | 6.52 | 6.38
